Publication PMC12677653, “Inhibition of Tumor Lipogenesis and Growth by Peptide‐Based Targeting of SREBP Activation” (Advanced Science, 2025)

Tests used:
SREBP1 activity = assay: SRE luciferase assay; format: cell-based, human; details: Huh7 cells, peptide 15 µM 1 h, IGF1 100 ng/mL 14 h, normalized to β-galactosidase, n = 3
SREBP1 = assay: Immunofluorescence of SREBP1 nuclear accumulation; format: cell-based, human; details: Huh7 cells, peptide 15 μM, IGF1 100 ng/mL 8 h
Experimental: Figure 1 The Insig1/2 loop 1 peptide binds to S90‐phosphorylated PCK1 and blocks PCK1‐mediated SREBP activation and tumor cell proliferation. Immunoblotting analyses were performed using the indicated antibodies; representative results from three independent experiments are shown (IP, immunoprecipitation; WB, western blot). a) Huh7 cells expressing various Insig1 (top) or Insig2 (bottom) truncation mutants were treated with or without IGF1 (100 ng mL^−1) for 1 h. b,c) Biolayer interferometry assays (Sartorius Octet) were employed to measure the binding affinity of Insig1/2 loop 1 peptide to GST‐PCK1 or GST‐PCK1 pS90 proteins. […] Statistical significance was determined by one‐way analysis of variance (ANOVA). g) Following pretreatment with Insig1/2 loop 1 peptide (15 µM) and IGF1 stimulation (100 ng mL^−1, 8 h), Huh7 cells were subjected to immunofluorescence analysis (scale bar: 10 µm). h) Quantitative PCR analysis of SREBP1 target gene GPAM in Huh7 cells pretreated with Insig1/2 loop 1 peptide (15 µM) and stimulated with IGF1 (100 ng mL^−1) for 10 h. […] Statistical significance was determined by one‐way analysis of variance (ANOVA). i) Quantitative PCR analysis of SREBP1 target gene FASN in Huh7 cells pretreated with Insig1/2 loop 1 peptide (15 µM) and stimulated with IGF1 (100 ng mL^−1) for 10 h. […]

Huh7 cells = assay: Cell proliferation, Huh7; format: cell-based, human; details: peptide 25 µM 1 h, IGF1 100 ng/mL 72 h, automated cell counting, n = 3
[1] = test system: HCT116 human colon cancer cells; assay: Cell proliferation / cell death, HCT116; format: cell-based; details: concentration gradient of peptide, OD measurement (Figure S1i)
Experimental: Cells were seeded in 96‐well plates at a density of 5000 cells per well in 100 µL complete growth medium. Following a 24‐hour incubation period (37 °C, 5% CO2) to permit cell adherence, the culture medium was replaced with fresh low serum contained complete medium containing either Insig1/2 loop1 peptide (0–100 µM concentration range) or PBS. Cells were maintained under these conditions for 72 hours. After treatment, the culture medium was carefully aspirated, and cells were washed twice with 200 µL phosphate‐buffered saline (PBS, pH 7.4). Fixed was performed using 4% paraformaldehyde (100 µL/well) for 15 min at room temperature, followed by three PBS washes (200 µL/well) to remove residual fixative. 0.1% (w/v) crystal violet staining solution was prepared by dissolving crystal violet powder in 10% ethanol, followed by filtration through a 0.22 µm membrane. Each well received 80 µL of staining solution and was incubated for 15 min at room temperature, protected from light. […] Plates were agitated at 200 rpm for 10 min to ensure complete dissolution before measuring absorbance at 582 nm using a microplate reader. […]
i-k) (i) HCT116, (j) Huh7, and (k) Hep3B cells were exposed to a concentration gradient of Insig1/2 loop1 peptide, and cell proliferation was quantified by optical density (OD) measurements.

“RKKRRQRRRLYPCIDSHLGEPHKFKRE [Insig1/2 loop 1 peptide]” was tested, and the “SREBP1 activity (SRE luciferase)” value (SREBP1 activity) was “markedly inhibited”, the “nuclear accumulation of SREBP1” value (SREBP1) was “markedly inhibited” and the “IGF1-induced increase in proliferation” value (Huh7 cells) was “inhibited”. The cell death [1] was “induced cell death”.
